Data reported in ChEMBL document CHEMBL1125802, “Isolation and structure of the cell growth inhibitory constituents from the western Pacific marine sponge Axinella sp” (1991).
≈ marks a conversion by molar mass, not a printed value. One block for each compound: values may come before it. Where a SMILES comes first, the peptide text is derived from it.

Tests used:
P388 [1] = assay: Effect on change in life span of P388 lymphocytic leukemia (PS system) cell growth at 100 mg/kg; type: functional, Mus musculus
P388 [2] = assay: Effect on P388 lymphocytic leukemia (PS system) cell growth; type: functional; details: Mus musculus, read-out: ED50 (the source's name)
P388 [3] = assay: Effect on P388 lymphocytic leukemia (PS system) cell growth […]; type: functional; details: Mus musculus, read-out: ED50 (the source's name)
P388 [4] = assay: T/C at 25 mg/kg; type: functional, Mus musculus
P388 [5] = assay: T/C at 150 ug/kg; type: functional, Mus musculus

Compound: CC(C)O.ClCCl
Life span (P388 [1]): 10% | EC50 (P388 [2]): 2.5 µg/mL

EC50 (P388 [3]): 0.21 µg/mL (≈ 0.279 µM)
Compound: CC(C)[C@@H]1NC(=O)[C@H](Cc2ccccc2)NC(=O)[C@@H]2CCCN2C(=O)[C@H](CC(N)=O)NC(=O)[C@H](C(C)C)NC(=O)[C@@H]2CCCN2C(=O)[C@H](C(C)C)NC1=O (cyclo(FVVPVNP))

Compound: C=C1C[C@@H]2CC[C@@]34C[C@H]5O[C@H]6[C@@H](O3)[C@H]3O[C@H](CC[C@@H]3O[C@H]6[C@H]5O4)CC(=O)O[C@@H]3[C@@H](C)[C@@H]4O[C@@H]5C[C@]6(C[C@@H]7O[C@]8(C[C@H](C)[C@@H]9O[C@H]([C@@H](O)C[C@@H](O)CO)C[C@@H]9O8)C[C@H](C)[C@@H]7O6)O[C@@H]5C[C@@H]4O[C@H]3C[C@H]3O[C@@H](CC[C@@H]1O2)C[C@@H](C)C3=C [HALICHONDRIN B]
T/C (P388 [4]): 238

Compound: C=C1C[C@@H]2CC[C@@]34C[C@H]5O[C@H]6[C@@H](O3)[C@H]3O[C@H](CC[C@@H]3O[C@H]6[C@H]5O4)CC(=O)O[C@@H]3[C@@H](C)[C@@H]4O[C@@H]5C[C@]6(C[C@@H]7O[C@]8(C[C@H](C)[C@@H]9O[C@@H]%10CC(C(O)CO)O[C@@H]%10C[C@@H]9O8)C[C@H](C)[C@@H]7O6)O[C@@H]5C[C@@H]4O[C@H]3C[C@H]3O[C@@H](CC[C@@H]1O2)C[C@@H](C)C3=C (stereo not given in full) [HOMOHALICHONDRIN B]
T/C (P388 [5]): 285
